One experiment relates to HCT-116. Put plainly: Antiproliferative activity against human HCT-116 cells expressing wildtype ATM incubated for 72 hrs by CCK8 assay. The format is functional, cell-based. Conditions: HCT-116, 72 h.
The test system of experiment [1] is LoVo. Put plainly: Antiproliferative activity against ATM deficient human LoVo cells incubated for 72 hrs by CCK8 assay. The format is functional, cell-based.
Experiment [2] has as its system LoVo. Put plainly: Induction of DNA damage in human LoVo cells assessed as increase in gammaH2AX expression at 1 uM incubated for 72 hrs by DAPI staining based immunofluorescence analysis. The format is functional, cell-based.
Experiment [3] deals with LoVo. Put plainly: Induction of apoptosis in human LoVo cells assessed as apoptotic rate at 1 uM incubated for 48 hrs by Annexin V-FITC/PI staining based flow cytometric analysis (reference value: 5.32 %). The format is functional.
For experiment [4], the system named is LoVo. Put plainly: Cell cycle arrest in human LoVo cells assessed as accumulation of cells at G0/G1 phase at 1 uM incubated for 72 hrs by PI staining based flow cytometric analysis (reference value: 52.3 %). The experiment is classed as functional.
The subject of experiment [5] is LoVo. Put plainly: Cell cycle arrest in human LoVo cells assessed as accumulation of cells at S phase at 1 uM incubated for 72 hrs by PI staining based flow cytometric analysis (reference value: 25.5 %). The format is functional.
Experiment [6] relates to LoVo. Description: Cell cycle arrest in human LoVo cells assessed as accumulation of cells at G2/M phase at 1 uM incubated for 72 hrs by PI staining based flow cytometric analysis (reference value: 22.2 %). The experiment is classed as functional.
The subject of experiment [7] is LoVo. Description: Synergistic antitumor activity against human LoVo cells xenografted in BALB/c nude mouse assessed as tumor growth inhibition at 12.5 mg/kg, po administered once daily for 15 days in presence of cisplatin relative to control. The experiment is classed as functional. Particulars: 360 h, time 15 day, read-out: TGI.
Experiment [8] has as its target Serine/threonine-protein kinase ATR (Homo sapiens, UniProt Q13535). Description: Inhibition of ATR (unknown origin).
Experiment [9] in a line: Selectivity ratio for inhibition of ATM (unknown origin) to inhibition of ATR (unknown origin).
Experiment [10] can be described thus: Selectivity ratio for inhibition of PI3K (unknown origin) to inhibition of ATR (unknown origin).
In experiment [11] the target is Protein cereblon/Serine/threonine-protein kinase ATR (Homo sapiens, UniProt Q13535+Q96SW2). Put plainly: PROTAC activity at CRBN/ATR in human LoVo cells assessed as induction of ATR degradation. The format is cell-based.
Sequence of Protein cereblon/Serine/threonine-protein kinase ATR (Q13535 whole entry, looked up): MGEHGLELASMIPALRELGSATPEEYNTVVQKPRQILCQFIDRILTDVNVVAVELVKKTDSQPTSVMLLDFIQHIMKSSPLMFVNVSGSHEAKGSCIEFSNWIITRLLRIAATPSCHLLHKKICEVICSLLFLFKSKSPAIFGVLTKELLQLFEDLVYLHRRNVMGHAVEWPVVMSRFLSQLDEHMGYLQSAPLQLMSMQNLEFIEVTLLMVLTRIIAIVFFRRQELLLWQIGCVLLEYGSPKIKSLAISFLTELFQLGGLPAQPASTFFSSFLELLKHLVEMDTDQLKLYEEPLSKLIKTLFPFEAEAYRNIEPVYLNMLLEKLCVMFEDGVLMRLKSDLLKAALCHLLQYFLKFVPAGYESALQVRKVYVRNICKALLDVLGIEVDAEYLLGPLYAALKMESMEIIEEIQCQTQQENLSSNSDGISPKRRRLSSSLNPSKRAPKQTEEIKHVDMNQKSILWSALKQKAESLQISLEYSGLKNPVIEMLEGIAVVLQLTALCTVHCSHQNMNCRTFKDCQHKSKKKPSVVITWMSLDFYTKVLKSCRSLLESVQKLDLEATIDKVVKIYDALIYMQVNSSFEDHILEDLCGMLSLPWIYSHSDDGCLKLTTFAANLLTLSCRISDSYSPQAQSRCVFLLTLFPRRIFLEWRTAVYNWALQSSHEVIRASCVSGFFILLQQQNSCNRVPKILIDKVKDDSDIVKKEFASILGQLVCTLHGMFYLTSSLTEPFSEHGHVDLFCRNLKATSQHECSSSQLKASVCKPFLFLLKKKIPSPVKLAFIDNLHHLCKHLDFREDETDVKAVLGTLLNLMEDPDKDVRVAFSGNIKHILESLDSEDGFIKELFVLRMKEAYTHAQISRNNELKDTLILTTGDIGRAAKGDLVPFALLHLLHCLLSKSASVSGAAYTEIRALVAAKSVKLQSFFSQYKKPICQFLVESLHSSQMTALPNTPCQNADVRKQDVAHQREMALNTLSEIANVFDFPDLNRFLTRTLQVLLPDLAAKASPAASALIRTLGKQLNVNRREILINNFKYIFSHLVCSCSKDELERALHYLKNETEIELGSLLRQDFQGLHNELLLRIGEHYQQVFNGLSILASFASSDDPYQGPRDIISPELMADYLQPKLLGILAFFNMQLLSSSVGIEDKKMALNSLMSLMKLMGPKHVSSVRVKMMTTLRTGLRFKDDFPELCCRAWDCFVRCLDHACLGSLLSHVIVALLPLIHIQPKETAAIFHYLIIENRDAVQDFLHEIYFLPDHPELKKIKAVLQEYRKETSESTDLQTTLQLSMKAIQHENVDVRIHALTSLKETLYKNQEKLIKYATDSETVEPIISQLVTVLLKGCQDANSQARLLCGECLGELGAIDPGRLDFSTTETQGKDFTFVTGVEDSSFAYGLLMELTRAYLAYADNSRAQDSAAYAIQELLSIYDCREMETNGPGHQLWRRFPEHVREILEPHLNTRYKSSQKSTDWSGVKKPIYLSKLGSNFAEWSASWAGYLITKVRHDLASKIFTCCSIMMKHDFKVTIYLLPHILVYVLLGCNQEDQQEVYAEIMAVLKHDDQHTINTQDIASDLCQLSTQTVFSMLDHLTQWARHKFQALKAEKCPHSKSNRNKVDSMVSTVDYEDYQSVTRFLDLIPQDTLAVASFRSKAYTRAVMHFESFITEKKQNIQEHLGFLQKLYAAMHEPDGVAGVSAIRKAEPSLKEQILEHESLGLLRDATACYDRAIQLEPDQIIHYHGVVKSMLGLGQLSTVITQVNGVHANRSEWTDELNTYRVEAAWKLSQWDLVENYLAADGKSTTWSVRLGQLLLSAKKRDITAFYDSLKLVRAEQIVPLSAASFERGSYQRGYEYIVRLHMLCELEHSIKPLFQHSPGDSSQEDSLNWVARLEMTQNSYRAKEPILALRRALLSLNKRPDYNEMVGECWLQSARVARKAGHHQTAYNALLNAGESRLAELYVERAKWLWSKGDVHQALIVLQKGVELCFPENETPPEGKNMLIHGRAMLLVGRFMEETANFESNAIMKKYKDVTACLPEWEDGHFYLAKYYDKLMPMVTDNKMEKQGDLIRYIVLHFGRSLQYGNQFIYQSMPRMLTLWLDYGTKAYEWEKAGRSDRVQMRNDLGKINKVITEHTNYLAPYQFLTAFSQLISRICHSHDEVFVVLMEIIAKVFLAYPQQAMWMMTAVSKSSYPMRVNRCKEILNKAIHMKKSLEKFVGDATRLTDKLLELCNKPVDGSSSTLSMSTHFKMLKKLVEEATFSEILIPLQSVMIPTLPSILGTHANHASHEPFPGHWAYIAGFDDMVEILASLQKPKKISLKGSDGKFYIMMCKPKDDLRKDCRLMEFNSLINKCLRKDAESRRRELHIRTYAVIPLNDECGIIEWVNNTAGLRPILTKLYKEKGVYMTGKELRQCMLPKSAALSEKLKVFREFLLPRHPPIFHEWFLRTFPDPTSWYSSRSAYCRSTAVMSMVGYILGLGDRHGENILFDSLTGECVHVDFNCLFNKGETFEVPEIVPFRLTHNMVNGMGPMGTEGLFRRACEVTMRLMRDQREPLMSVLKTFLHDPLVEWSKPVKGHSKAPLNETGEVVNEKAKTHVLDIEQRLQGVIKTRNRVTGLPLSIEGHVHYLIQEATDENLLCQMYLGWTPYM
Sequence of Protein cereblon/Serine/threonine-protein kinase ATR (Q96SW2 whole entry, looked up): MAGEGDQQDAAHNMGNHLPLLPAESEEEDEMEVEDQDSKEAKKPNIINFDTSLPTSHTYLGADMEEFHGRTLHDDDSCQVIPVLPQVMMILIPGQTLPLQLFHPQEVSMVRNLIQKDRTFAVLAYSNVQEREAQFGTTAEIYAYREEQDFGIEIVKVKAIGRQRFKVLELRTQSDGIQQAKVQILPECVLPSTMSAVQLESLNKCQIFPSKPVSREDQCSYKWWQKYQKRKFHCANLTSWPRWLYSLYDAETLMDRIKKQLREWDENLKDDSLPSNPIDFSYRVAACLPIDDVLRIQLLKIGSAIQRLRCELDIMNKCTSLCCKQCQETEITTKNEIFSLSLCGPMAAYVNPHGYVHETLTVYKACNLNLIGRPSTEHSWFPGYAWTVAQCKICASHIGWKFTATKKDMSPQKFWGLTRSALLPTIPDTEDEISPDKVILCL

Structures are written as SMILES. Calls of active or inactive are those of the source. The rule behind the calls is not given here.

Sequence of Serine/threonine-protein kinase ATR (Q13535 whole entry): as the sequence (Q13535 whole entry, looked up) above

In the case of `C[C@@H]1COCCN1c1cc(C2([S@@](C)(=O)=NC(=O)CCc3cn(CCCCCCCCCCC(=O)Nc4cccc5c4C(=O)N(C4CCC(=O)NC4=O)C5=O)nn3)CC2)nc(-c2ccnc3[nH]ccc23)n1` (stereo not given in full), the values for the IC50 with HCT-116 and in the experiment with LoVo [1] were over 50 µM and 16.4 µM, respectively.

As for `C[C@@H]1COCCN1c1cc(C2([S@](C)(=N)=O)CC2)nc(-c2cc[nH]c3nccc2-3)n1` [CERALASERTIB], the IC50 with HCT-116 amounted to 3.62 µM; in the experiment with LoVo [1] it was 0.83 µM. Also, the outcome with LoVo [2] was Active. The Activity in the experiment with LoVo [3] worked out at 42%; with LoVo [4], 71.8%; with LoVo [5], 16.7%; in the experiment with LoVo [6] it was 11.5%. Besides, in the experiment with LoVo [7], the inhibition in vivo at 12.5 mg/kg stood at 52.7%.

Consider `C[C@@H]1COCCN1c1cc(C2([S@@](C)(=O)=NC(=O)CCc3cn(CCCCCCC(=O)Nc4cccc5c4C(=O)N(C4CCC(=O)NC4=O)C5=O)nn3)CC2)nc(-c2ccnc3[nH]ccc23)n1` (stereo not given in full), for which the IC50 in the experiment with HCT-116 was over 50 µM; with LoVo [1] it was 20 µM.

For `C[C@@H]1COCCN1c1cc(C2([S@@](C)(=O)=NC(=O)CCc3cn(CCCCC(=O)Nc4cccc5c4C(=O)N(C4CCC(=O)NC4=O)C5=O)nn3)CC2)nc(-c2ccnc3[nH]ccc23)n1` (stereo not given in full), the values for the IC50 with HCT-116 and in the experiment on LoVo [1] were over 50 µM and 28.4 µM, respectively.

`C[C@@H]1COCCN1c1cc(C2([S@@](C)(=O)=NC(=O)CCc3cn(CCOCCOCC(=O)Nc4cccc5c4C(=O)N(C4CCC(=O)NC4=O)C5=O)nn3)CC2)nc(-c2ccnc3[nH]ccc23)n1` (stereo not given in full): the IC50 in the experiment with HCT-116 was over 50 µM; in the experiment with LoVo [1], 26.7 µM.

Regarding `Cc1ncsc1-c1ccc(CNC(=O)[C@@H]2C[C@@H](O)CN2C(=O)[C@@H](NC(=O)CCCCCCCn2cc(CCC(=O)N=[S@](C)(=O)C3(c4cc(N5CCOC[C@H]5C)nc(-c5ccnc6[nH]ccc56)n4)CC3)nn2)C(C)(C)C)cc1`, the 50% inhibitory concentration (IC50) in the experiment on HCT-116 and with LoVo [1] was over 50 µM in each case.

As to `C[C@@H]1COCCN1c1cc(C2([S@@](C)(=O)=NC(=O)CCc3cn(CCCCCC(=O)Nc4cccc5c4C(=O)N(C4CCC(=O)NC4=O)C5=O)nn3)CC2)nc(-c2ccnc3[nH]ccc23)n1` (stereo not given in full), the results for the 50% inhibitory concentration (IC50) in the experiment with HCT-116 and with LoVo [1] were over 50 µM and 23.3 µM, respectively.

In the case of `C[C@@H]1COCCN1c1cc(C2([S@@](C)(=O)=NC(=O)CCc3cn(CCCCCCCCC(=O)Nc4cccc5c4C(=O)N(C4CCC(=O)NC4=O)C5=O)nn3)CC2)nc(-c2ccnc3[nH]ccc23)n1` (stereo not given in full), the 50% inhibitory concentration (IC50) was over 50 µM in the experiment on HCT-116 and 32.4 µM in the experiment with LoVo [1].

`Nc1nn2cc(F)cnc2c1C(=O)Nc1cncc(F)c1N1CCC(C(=O)N2CCN(C3COC3)CC2)CC1` [M4344]: half-maximal inhibition in experiment [8] (IC50) was put at 0.15 nM. The Selectivity ratio in experiment [9] and in experiment [10] was over 50 in each case.

In the case of `CCN1C(=O)CCC(N2C(=O)c3cccc(NC(=O)CCCCCCCCCn4cc(CCC(=O)N=[S@](C)(=O)C5(c6cc(N7CCOC[C@H]7C)nc(-c7ccnc8[nH]ccc78)n6)CC5)nn4)c3C2=O)C1=O` (stereo not given in full), the IC50 in the experiment with HCT-116 and in the experiment with LoVo [1] was over 50 µM each time. In [11], the result was inactive.

`C[C@@H]1COCCN1c1cc(C2([S@@](C)(=O)=NC(=O)CCc3cn(CCOCCOCCOCC(=O)Nc4cccc5c4C(=O)N(C4CCC(=O)NC4=O)C5=O)nn3)CC2)nc(-c2ccnc3[nH]ccc23)n1` (stereo not given in full): the IC50 in the experiment on HCT-116 and in the experiment on LoVo [1] was over 50 µM each time.

For the compound `Cc1ncsc1-c1ccc(CNC(=O)[C@@H]2C[C@@H](O)CN2C(=O)[C@@H](N)C(C)(C)C)cc1`, the IC50 with HCT-116 and in the experiment on LoVo [1] was over 50 µM in each case.

As for `Cc1ncsc1-c1ccc(CNC(=O)[C@@H]2C[C@@H](O)CN2C(=O)[C@@H](NC(=O)CCCCCCCCCCn2cc(CCC(=O)N=[S@](C)(=O)C3(c4cc(N5CCOC[C@H]5C)nc(-c5ccnc6[nH]ccc56)n4)CC3)nn2)C(C)(C)C)cc1`, the IC50 in the experiment on HCT-116 and in the experiment on LoVo [1] was over 50 µM throughout.

`Nc1cccc2c1C(=O)N(C1CCC(=O)NC1=O)C2=O` (stereo not given) [POMALIDOMIDE]: the IC50 in the experiment on HCT-116 and in the experiment with LoVo [1] was over 50 µM throughout.

With `C[C@@H]1COCCN1c1cc(C2([S@@](C)(=O)=NC(=O)CCc3cn(CCCCCCCCCC(=O)Nc4cccc5c4C(=O)N(C4CCC(=O)NC4=O)C5=O)nn3)CC2)nc(-c2ccnc3[nH]ccc23)n1` (stereo not given in full), the results for the IC50 with HCT-116 and with LoVo [1] were over 50 µM and 21.2 µM, respectively.

In the case of `Cc1ncsc1-c1ccc(CNC(=O)[C@@H]2C[C@@H](O)CN2C(=O)[C@@H](NC(=O)CCCCn2cc(CCC(=O)N=[S@](C)(=O)C3(c4cc(N5CCOC[C@H]5C)nc(-c5ccnc6[nH]ccc56)n4)CC3)nn2)C(C)(C)C)cc1`, the IC50 in the experiment on HCT-116 and with LoVo [1] was over 50 µM throughout.

Values taken from ChEMBL document CHEMBL5576037, “Discovery of the first ataxia telangiectasia and Rad3-related (ATR) degraders for cancer treatment” (Eur J Med Chem, 2024).
